According to ChEMBL document CHEMBL5465560, “Selectivity Literature for EUbOPEN Chemogenomic Library” (2024):

Tests used:
[1] = target: T1, Mitogen-activated protein kinase kinase kinase 2 (Homo sapiens) (UniProt Q9Y2U5); assay: Selectivity interaction (KinomeScan (DiscoverX)) EUB0000595a MAP3K2; conditions: at 10 µM
T1 sequence (whole entry): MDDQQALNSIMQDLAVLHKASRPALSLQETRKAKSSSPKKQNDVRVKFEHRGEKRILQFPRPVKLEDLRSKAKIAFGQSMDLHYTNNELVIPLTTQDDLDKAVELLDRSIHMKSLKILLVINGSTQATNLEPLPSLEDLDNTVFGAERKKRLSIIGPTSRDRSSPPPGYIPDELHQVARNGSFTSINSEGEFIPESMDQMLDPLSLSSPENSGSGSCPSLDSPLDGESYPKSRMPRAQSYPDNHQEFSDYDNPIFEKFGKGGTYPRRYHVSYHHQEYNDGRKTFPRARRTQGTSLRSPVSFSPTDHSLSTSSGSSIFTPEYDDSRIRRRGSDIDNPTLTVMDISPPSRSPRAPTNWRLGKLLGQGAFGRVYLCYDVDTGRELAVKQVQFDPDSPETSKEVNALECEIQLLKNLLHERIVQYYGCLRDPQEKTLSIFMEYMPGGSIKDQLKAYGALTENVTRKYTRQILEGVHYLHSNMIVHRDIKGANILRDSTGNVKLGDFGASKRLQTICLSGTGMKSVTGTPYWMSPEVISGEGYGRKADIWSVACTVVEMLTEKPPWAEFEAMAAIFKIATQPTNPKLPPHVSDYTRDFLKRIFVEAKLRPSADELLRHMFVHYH

[2] = target: T2, Dual specificity mitogen-activated protein kinase kinase 7 (Homo sapiens) (UniProt O14733); assay: Selectivity interaction (KinomeScan (DiscoverX)) EUB0000695a MAP2K7; conditions: at 100 nM
T2 sequence (whole entry): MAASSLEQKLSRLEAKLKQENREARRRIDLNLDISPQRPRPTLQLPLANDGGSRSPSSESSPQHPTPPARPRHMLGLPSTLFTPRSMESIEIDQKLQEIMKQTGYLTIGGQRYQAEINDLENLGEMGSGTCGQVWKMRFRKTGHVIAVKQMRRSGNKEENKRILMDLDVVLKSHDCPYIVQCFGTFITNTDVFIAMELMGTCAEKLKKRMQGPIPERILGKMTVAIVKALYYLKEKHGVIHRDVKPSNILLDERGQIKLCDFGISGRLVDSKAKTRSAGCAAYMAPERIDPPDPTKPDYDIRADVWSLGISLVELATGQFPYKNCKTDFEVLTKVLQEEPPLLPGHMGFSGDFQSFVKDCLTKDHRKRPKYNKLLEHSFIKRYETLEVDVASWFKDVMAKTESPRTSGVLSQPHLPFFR

[3] = target: CDK6/cyclin D1 (Homo sapiens) (UniProt P24385+Q00534); assay: (§1) Selectivity interaction (Rxn Biology Kinase assay) EUB0001632a CDK6; assay type: protein-complex assay; conditions: at 10 µM
[4] = target: CDK6/cyclin D3 (Homo sapiens) (UniProt P30281+Q00534); assay: as §1; assay type: protein-complex assay; conditions: at 10 µM
[5] = target: T3, 3-phosphoinositide-dependent protein kinase 1 (Homo sapiens) (UniProt O15530); assay: Selectivity interaction (KinomeScan (DiscoverX)) EUB0000607a PDPK1; conditions: at 10 µM
T3 sequence (whole entry): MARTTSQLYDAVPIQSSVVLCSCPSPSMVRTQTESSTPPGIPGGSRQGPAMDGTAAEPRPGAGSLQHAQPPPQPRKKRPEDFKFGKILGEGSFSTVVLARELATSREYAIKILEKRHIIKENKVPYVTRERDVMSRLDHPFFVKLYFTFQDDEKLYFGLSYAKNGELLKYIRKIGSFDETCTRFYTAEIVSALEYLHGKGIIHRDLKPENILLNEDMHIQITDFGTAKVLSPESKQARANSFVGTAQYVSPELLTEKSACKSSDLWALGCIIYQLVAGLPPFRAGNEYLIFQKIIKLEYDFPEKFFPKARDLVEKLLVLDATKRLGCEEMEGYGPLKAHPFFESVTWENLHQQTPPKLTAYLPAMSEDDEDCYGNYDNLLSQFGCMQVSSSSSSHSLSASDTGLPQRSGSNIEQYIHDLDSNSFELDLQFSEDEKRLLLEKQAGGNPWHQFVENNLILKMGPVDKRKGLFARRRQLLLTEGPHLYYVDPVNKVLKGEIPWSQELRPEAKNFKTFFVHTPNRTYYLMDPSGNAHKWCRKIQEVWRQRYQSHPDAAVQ

[6] = target: T4, Serine/threonine-protein kinase VRK1 (Homo sapiens) (UniProt Q99986); assay: Selectivity interaction (Kinase panel (DSF assay)) EUB0001558a VRK1
T4 sequence (whole entry): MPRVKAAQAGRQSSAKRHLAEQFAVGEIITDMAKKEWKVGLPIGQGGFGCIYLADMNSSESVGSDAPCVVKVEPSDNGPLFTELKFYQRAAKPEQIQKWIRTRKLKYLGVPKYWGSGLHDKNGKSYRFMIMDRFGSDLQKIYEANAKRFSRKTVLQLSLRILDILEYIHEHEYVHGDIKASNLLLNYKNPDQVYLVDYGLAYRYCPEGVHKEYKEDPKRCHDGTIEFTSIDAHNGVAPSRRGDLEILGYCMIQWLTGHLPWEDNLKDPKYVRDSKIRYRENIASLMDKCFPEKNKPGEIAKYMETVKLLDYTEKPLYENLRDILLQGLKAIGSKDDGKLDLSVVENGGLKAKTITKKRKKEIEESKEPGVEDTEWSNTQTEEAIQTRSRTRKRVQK

[7] = target: MAP/microtubule affinity-regulating kinase 3 (Homo sapiens) (UniProt P27448); assay: Selectivity interaction (Ambit KINOMEscan and KiNATiv profiling in Jurkat cells) EUB0000090b MARK3; assay type: cell-based; conditions: at 1 µM
Sequence of MAP/microtubule affinity-regulating kinase 3 (Homo sapiens) (P27448 whole entry, looked up): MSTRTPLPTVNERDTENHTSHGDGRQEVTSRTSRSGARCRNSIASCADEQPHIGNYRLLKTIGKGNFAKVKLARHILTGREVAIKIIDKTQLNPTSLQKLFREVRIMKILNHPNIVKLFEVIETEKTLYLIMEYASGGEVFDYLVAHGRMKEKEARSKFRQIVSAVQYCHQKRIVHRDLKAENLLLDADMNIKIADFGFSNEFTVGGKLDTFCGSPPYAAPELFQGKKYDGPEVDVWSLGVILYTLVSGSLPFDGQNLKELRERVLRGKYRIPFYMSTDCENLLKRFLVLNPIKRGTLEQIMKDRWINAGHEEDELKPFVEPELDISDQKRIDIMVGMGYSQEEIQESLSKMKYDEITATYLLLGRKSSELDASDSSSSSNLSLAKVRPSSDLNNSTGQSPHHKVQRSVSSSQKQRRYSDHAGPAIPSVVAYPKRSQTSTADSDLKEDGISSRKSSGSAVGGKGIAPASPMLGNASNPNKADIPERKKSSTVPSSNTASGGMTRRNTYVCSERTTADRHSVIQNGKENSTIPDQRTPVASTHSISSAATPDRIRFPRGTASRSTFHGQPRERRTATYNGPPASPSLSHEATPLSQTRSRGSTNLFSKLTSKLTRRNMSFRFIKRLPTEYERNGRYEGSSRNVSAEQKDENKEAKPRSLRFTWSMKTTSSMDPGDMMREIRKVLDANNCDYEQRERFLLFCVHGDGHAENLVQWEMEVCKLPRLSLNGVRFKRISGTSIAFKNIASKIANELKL

COCC(=O)NC/C=C/c1ccc2ncnc(Nc3ccc(Oc4ccc(C)nc4)c(C)c3)c2c1 [CP-724714]
% of control [1]: 100%

Cc1cc(F)c(C(=O)Nc2cccc(-c3nncn3C(C)C)n2)cc1-n1cnc(C2CC2)c1
% of control [2]: 95%

Cn1cc(-n2cnc3c(NCc4nc5cc(Cl)c(Cl)cc5[nH]4)nc(N4CCOCC4)nc32)cn1
% of inhibition [3]: 83.4% | % of inhibition [4]: 52.8%

CNC(=O)Nc1ccc(-c2nc(N3CC4CCC(C3)O4)c3cnn(C4CCC5(CC4)OCCO5)c3n2)cc1
% of control [5]: 76%

CC(C)(O)[C@H](F)CN1Cc2cc(NC(=O)c3cnn4cccnc34)c(N3CCOCC3)cc2C1=O
dTM [6]: -0.3 K

CN(C)C/C=C/C(=O)Nc1ccc(C(=O)N2CCCC(Nc3ncc(Cl)c(-c4c[nH]c5ccccc45)n3)C2)cc1 (configuration not stated)
% of control [7]: 88%
